Data taken from ChEMBL document CHEMBL3886169, “Oxazine derivatives and their use in the treatment of disease” (2015).
pIC50: −log10 of the molar value.

Tests used:
Beta-secretase 1 = Beta-secretase 1 (Homo sapiens, UniProt P56817); test: Inhibition Assay: Recombinant BACE-1 (extracellular domain, expressed in baculovirus and purified using standard methods) at 0.1 to 1 nM concentrations is incubated with the test compound at various concentrations for 1 hour at room temperature in 100 mM acetate buffer, pH 4.5, containing 0.1% CHAPS. Activity was measured using a final concentration of 3 μM of the fluorescence-quenched substrate Q-C(HSO3)-Ile-Asp-Leu-Ala-Val-Leu-Asp-HN-CH2-CH2-Mca, where Q=2-nitro-5-amino benzoic acid and Mca=7-methoxy-4-coumarinyl acetic acid. Catalytic turnover was monitored in a Spectramax Gemini fluorescence plate reader (Molecular Devices) in black 96-well microplates using excitation/emission wavelength of 325 nm and 400 nm, respectively. Fluorescence increase was followed for 15 min, in 1 minute's intervals. The fluorescence/time slopes were calculated from duplicate wells and from wells without inhibitor and the IC50 values were calculated using a logistic 4-parameter model.
Sequence of Beta-secretase 1 (P56817 whole entry, the tested form may be a part): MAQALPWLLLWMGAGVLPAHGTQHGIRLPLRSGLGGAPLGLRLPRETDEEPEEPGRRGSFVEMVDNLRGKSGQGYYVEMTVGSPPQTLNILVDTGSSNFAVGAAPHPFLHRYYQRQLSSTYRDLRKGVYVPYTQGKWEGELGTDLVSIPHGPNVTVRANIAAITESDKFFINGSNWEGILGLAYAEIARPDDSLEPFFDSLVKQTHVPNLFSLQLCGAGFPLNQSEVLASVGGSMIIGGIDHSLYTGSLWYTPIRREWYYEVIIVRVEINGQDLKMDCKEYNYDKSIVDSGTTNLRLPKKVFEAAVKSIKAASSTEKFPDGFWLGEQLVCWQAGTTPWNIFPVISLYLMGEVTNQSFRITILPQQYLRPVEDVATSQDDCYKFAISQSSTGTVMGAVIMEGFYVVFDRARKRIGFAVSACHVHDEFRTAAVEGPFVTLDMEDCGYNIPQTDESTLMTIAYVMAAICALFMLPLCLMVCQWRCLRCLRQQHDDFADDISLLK

Beta-secretase 2 = biological target: T1, Beta-secretase 2 (Homo sapiens, UniProt Q9Y5Z0); test: Fluorescence increase was followed for 15 min, in 1 minute's intervals. The fluorescence/time slopes were calculated from duplicate wells and from wells without inhibitor and the IC50 values were calculated using a logistic 4-parameter model.
T1 sequence (Q9Y5Z0 whole entry): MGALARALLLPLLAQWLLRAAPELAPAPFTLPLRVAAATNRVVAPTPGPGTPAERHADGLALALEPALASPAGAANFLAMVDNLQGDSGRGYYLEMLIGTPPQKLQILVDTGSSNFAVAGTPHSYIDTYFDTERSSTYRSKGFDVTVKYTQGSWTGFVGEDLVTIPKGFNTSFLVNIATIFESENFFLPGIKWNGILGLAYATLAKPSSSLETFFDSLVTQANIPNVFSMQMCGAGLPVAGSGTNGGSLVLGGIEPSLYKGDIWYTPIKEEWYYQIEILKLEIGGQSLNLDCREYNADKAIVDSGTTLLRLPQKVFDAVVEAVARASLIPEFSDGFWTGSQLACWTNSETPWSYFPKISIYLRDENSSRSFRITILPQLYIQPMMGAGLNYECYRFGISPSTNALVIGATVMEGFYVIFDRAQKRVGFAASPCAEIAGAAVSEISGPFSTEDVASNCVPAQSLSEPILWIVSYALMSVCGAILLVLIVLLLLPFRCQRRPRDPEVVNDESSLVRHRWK

pIC50 (Beta-secretase 1): 6.57
pIC50 (Beta-secretase 2): 7.03
Compound: COc1cnc(C(=O)Nc2ccc(F)c([C@@]3(C)N=C(N)OCC3(F)F)n2)c(C)c1
